Results on five compounds are retold here after patent US20090075902A1, “INHIBITING THE SIGNS OF AGING BY INHIBITING NF-KAPPA B ACTIVATION” (priority 2007, published 2009).

One may read the pIC50 as −log10 of the IC50, conventionally taken in molar units.

pIC50: −log10 of the molar value.

The subject of series [1] is Ercc^−/Δ mouse. Nature of the series: Delayed onset of frailty in a mouse treated with Compound A. The format is in vivo. As to conditions: 5 MG/KG of Compound A, n=1; oil control n=3. As for the experimental part: Delayed onset of frailty in an Ercc^−/Δ mouse treated with 5 MG/KG of Compound A
Series [2] relates to NF-κB activation. As to conditions: (Wen 2006); cited from earlier work.
For series [3], the system named is Ercc1^−/Δ mice. Nature of the series: Pilot study: chronic 8K-NBD treatment, onset and severity of progeroid symptoms. The format is in vivo, mouse. As for the experimental part:
FIG. 6. Exposure paradigm for pilot study to determine the impact of 8K-NBD on quality of life in progeroid Ercc1^−/Δ mice. 8K-NBD was dissolved in 5% DMSO in PBS and injected intraperitoneally. A littermate Ercc1^−/Δ mouse was treated with an equal volume of vehicle only (PBS). The study was concluded at 19 wks when the mouse treated with vehicle only became profoundly ataxic and cachectic, requiring euthanization.
Studies were performed to determine if inhibition of NF-κB activation ameliorates accelerated aging in Ercc1^−/Δ mice. An Ercc1^−/Δ mouse was chronically treated with 8K-NBD peptide as described in FIG. 6. The age at onset of numerous progeroid symptoms were recorded (Table II). Ataxia and priapism, both caused by neurodegeneration (Rolig and McKinnon, 2000), were delayed by 3 wks and 1.5 wks respectively in the mouse treated with 8K-NBD.
Motor strength and coordination were measured weekly in the mice by testing their ability to cross a balance beam (FIG. 9A) and to remain suspended from a wire (FIG. 9B).

In series [4] the test system is Ercc1^−/Δ mice. Nature of the series: Second series: 8K-NBD in an older symptomatic mouse, liver and skeletal muscle histopathology. The format is in vivo. The protocol:
FIG. 10. Exposure paradigm for pilot study to determine the impact of 8K-NBD on histopathologic changes in progeroid Ercc1^−/Δ mice. 8K-NBD was dissolved in 5% DMSO in PBS and injected i.p.
In a second series of experiments, an older Ercc1^−/Δ mouse, which already had progeroid symptoms, was chronically exposed to 8K-NBD then euthanized at 20 wk of age to determine if 8K-NBD affected histopathologic changes associated with aging (FIG. 10). Liver and skeletal muscle (SKM) were dissected, fixed, sectioned and stained. Tissues were compared to age-matched untreated Ercc1^−/Δ. The liver of Ercc1^−/Δ mice display large polyploid nuclei (FIG. 11A, 10×) characteristic of senescent hepatocytes (Gupta, 2000). […] This is consistent with previous reports that in mouse models of numerous inflammatory myopathies, persistent NF-κB activity is associated with necrotic and regenerative changes (Monici et al., 2003).

Series [5] has as its system Ercc1^−/Δ mice. Briefly: Third series: double blinded twin study, 8K-NBD versus negative control 8K-mNBD. The format is in vivo, mouse. The protocol: FIG. 12. Treatment schedule for third series of experiments; treatment with 8K-NBD or negative control 8k-mNBD.
In a third series of experiments, a different treatment regimen was used (FIG. 12) in which treatment with 8K-NBD or a negative control peptide, 8K-mNBD (having a mutated sequence, […] (SEQ ID NO:7)) was initiated earlier than the above regimens at approximately 5 weeks (8K-NBD or 8K-mNBD, 10 mg/kg) administered intraperitoneally three times per week). This was a double blinded twin study designed to eliminate genetic and environmental variables.
FIG. 13 presents a table showing the phenotypic changes associated with aging in mice treated with 8k-NBD or negative control 8k-mNBD. The overall aging score was improved by 30 percent in 8K-NBD versus 8K-mNBD-treated mice, indicating a significant delay in the onset of age-related symptoms corresponding to over a decade in human life.
FIG. 15A-D presents a comparison of levels of hepatocellular senescence, as measured by staining for p16 protein, in young and senescent wild-type mice as well as Ercc1^−/Δ mice treated with either 8K-NBD or negative control 8K-mNBD according to the regimen of FIG. 12 at the age of 18 weeks.

Series [6] relates to mice. As to conditions: cited from earlier work.
The mark [7] stands for this setting: 8K-NBD 10 mg/kg i.p. chronically, versus sibling treated with vehicle only.
Setting [8] is: 8K-NBD versus vehicle-treated mouse.

As for `Cl.O=C1Nc2nc(-c3c(O)cccc3OCC3CC3)cc([C@@H]3CCCNC3)c2CO1` [Compound A], in series [1], the “Ataxia (onset)” value is listed as 19.3, the “Dystonia (onset)” value was determined as 13.7, the “Kyphosis (onset)” value was 14.3 and the “Trembling (onset)” value came to 12.7. Further, the “Wasting (onset)” value in series [1] was 19.7.
`COc1c(Cl)cc2c([nH]c3cnccc32)c1NC(=O)c1cccnc1C` [ML120B, (N-6-chloro-7-methoxy-9H-β-carbolin-8-yl)-2-methylnicotinamide]: the pIC50 in series [2] was 7.22.
“KKKKKKKK-GG-TALDWSWLQTE (SEQ ID NO:2) (KKKKKKKKGGTALDWSWLQTE) [8K-NBD]”: in series [3] (setting [7]), the “Delay of onset of ataxia” value amounted to 3 wks and the “Delay of onset of priapism” value is reported as 1.5 wks. Moreover, the Body weight maintenance entry in series [3] (8K-NBD versus untreated and vehicle-treated mice) is reported as “maintained weight longer”. In series [3] (setting [8]), the “Ambulation and general appearance” value is reported as “improved”; the “Severity of dystonia, trembling and kyphosis” value was “significantly reduced”. Besides, in series [3] (8K-NBD versus vehicle-treated sibling), the “Delay in onset of symptoms (cachexia, loss of muscle mass and vision)” value is ≥ 3 wk. In addition, in series [3] (tested weekly, versus untreated mice (n=7)), the “Motor strength and coordination (balance beam, suspension from a wire)” value was “tended to perform better”. Also, in series [3] (within the 19 wk period of the study, vehicle mouse showed them by 16 wks of age), the “Onset of cachexia, loss of muscle mass and vision” value was “did not arise”. For the same compound, in series [4] (at 20 wk of age, untreated Ercc1^−/Δ SKM showed necrosis), the “Skeletal muscle (SKM) pathology” value is reported as “devoid of pathologic changes”. Further, the “Hepatocyte cytoplasm to nuclear ratio” value in series [4] (liver at 20 wk of age, versus age-matched untreated Ercc1^−/Δ) is given as “much higher”. Also, in series [4] (liver at 20 wk of age, suggestive of liver regeneration), the Hepatic architecture result is listed as “effaced”. Besides, in series [5] (8K-NBD versus 8K-mNBD, 10 mg/kg i.p. three times per week from approximately 5 weeks), the “Improvement of overall aging score” value is listed as 30%. Also, the “Hepatocellular senescence, p16 protein staining pattern” value in series [5] (at the age of 18 weeks) is on record as “more closely resembles that of a young, healthy mouse”. Besides, in series [5] (at the age of 18 weeks, relative to 8K-mNBD-treated animal), the “Neurodegeneration, GFAP staining pattern” value is “more closely resembles that of the young wild-type mouse”.
Take “KKKKKKKKGGTALDASALQTE (SEQ ID NO:7) [8K-mNBD, reference compound]”: the “Degree of osteoporotic changes (micro-CT of vertebra)” value in series [5] (at 17 weeks of age, compared with 8K-NBD-treated sibling and wild-type littermate) is reported as “appears greatest”. The “Hepatocellular senescence, p16 protein staining pattern” value in series [5] (at the age of 18 weeks) was “more closely resembles the pattern in senescent wild-type hepatocytes”.
Take TALDWSWLQTE; SEQ ID NO:1 [NBD peptide]: in series [6], the “Toxicity on systemic administration” value is “not toxic”.
